Measured values taken from patent US20240043403A1, “HETEROARYL CARBOXAMIDE COMPOUND” (Astellas Pharma Inc., priority 2020, published 2024).
Counter-ions that a name gives are not always drawn.

target: human recombinant DGK ξ (Homo sapiens (Human), UniProt Q13574); test: Evaluation of DGK ξ inhibitory effect (ADP-Glo Kinase Assay); format: biochemical; details: ADP-Glo luminescence
Method: Test Example 1. Evaluation of DGK ξ Inhibitory Effect
The inhibitory effect of a test compound on human recombinant DGK ξ (Cama Biosciences, Inc., 12-410-20N) was examined by the following method in which detection is performed with ADP-Glo™ Kinase Assay (Promega Corporation).
To a 384-well plate (Greiner Bio-One Co., Ltd.), 3 μL of a DGK ξ enzyme dissolved in an assay buffer (40 mM Tris-HCl pH 7.5, 10 mM MgCl2, 1 mM dithiothreitol (DTT) and 0.1 mg/mL bovine serum albumin (BSA)) (90 ng/mL) was added, and 3 μL of the test compound diluted with the same assay buffer was added so that an intended final concentration was obtained. The mixture was left standing at room temperature for 15 minutes, 3 μL of a substrate (150 μM 1-oleoyl-2-acetyl-sn-glycerol (Sigma-Aldrich Co. LLC), 480 μM phosphatidylserine (Avanti, Inc.) and 150 μM UltraPure-ATP (attached to ADP-Glo)) was then added, and the mixture was left standing at room temperature for 30 minutes to react. Thereafter, 3 μL of an ADP-Glo Reagent was added, and the mixture was left standing at room temperature for 40 minutes to stop the enzyme reaction. Further, 6 μL of a Kinase-Detection Reagent was added, the mixture was left standing at room temperature for 30 minutes, and the luminescence was then measured using ARVO X3 (PerkinElmer, Inc.). The half maximal inhibitory concentration (IC50) was calculated by Sigmoid-Emax model non-linear regression analysis, where the signal value in solvent treatment was set to 0% inhibition and the signal value without addition of the DGK ξ enzyme was set to 100% inhibition. […] In the table. Ex represents the number of each Example described below.

human recombinant DGK ξ, sequence (Q13574 whole entry): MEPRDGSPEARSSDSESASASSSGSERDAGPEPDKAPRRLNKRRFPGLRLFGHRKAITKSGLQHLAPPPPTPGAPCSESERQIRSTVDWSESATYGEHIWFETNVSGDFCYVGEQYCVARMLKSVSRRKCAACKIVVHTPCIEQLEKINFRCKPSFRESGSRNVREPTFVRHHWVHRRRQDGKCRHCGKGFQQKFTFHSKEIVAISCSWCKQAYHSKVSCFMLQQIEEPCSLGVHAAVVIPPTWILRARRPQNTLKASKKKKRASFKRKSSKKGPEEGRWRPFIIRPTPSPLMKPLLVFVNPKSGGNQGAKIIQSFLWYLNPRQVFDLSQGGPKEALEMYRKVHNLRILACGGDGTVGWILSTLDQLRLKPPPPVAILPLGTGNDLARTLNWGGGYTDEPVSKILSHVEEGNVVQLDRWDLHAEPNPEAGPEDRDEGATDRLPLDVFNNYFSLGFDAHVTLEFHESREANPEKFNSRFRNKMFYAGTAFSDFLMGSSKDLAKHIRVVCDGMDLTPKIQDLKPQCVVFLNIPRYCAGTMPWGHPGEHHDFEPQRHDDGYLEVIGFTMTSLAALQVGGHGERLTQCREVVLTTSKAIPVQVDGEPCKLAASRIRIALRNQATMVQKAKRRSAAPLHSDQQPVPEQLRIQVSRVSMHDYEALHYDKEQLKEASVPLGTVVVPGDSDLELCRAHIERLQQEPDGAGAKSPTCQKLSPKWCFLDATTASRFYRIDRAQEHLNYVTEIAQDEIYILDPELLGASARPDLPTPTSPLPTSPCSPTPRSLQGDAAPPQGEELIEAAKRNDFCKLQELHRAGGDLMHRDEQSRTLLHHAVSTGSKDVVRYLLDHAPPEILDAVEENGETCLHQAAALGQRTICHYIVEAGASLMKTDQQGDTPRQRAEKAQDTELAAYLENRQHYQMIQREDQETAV

Compound	IC50 [nM]
NC[C@@H]1CCCN(c2c(NC(=O)c3ccn(CC(F)F)n3)ccc(Oc3ccccc3)c2C(F)(F)F)C1 [Example 2]	28
NC[C@@H]1CCCN(c2c(NC(=O)c3ccn(C(F)F)n3)ccc(Oc3ccccc3)c2C(F)(F)F)C1 [Example 3]	150
NC[C@@H]1CCCN(c2c(NC(=O)c3ccn(CC(F)F)n3)ccc(OC3CCCC3)c2C(F)(F)F)C1 [Example 4]	170
NC[C@@H]1CCCN(c2c(NC(=O)c3ccn(CC(F)F)n3)ccc(OC3CC3)c2C(F)(F)F)C1 [Example 5]	330
NC[C@@H]1CCCN(c2c(NC(=O)c3ccn(CC(F)F)n3)ccc(Oc3ccccc3F)c2F)C1 [Example 6]	57
NC[C@@H]1CCCN(c2c(NC(=O)c3ccn(CC(F)F)n3)ccc(Oc3ccc(F)cc3)c2C(F)(F)F)C1 [Example 8]	88
O=C(Nc1ccc(Oc2ccccc2F)c(C(F)(F)F)c1N1CCC[C@@H](CNC2CC2)C1)c1ccn(CC(F)F)n1 [Example 10]	93
NC[C@@H]1CCCN(c2c(NC(=O)c3cccn(CC(F)F)c3=O)ccc(Oc3ccccc3F)c2C(F)(F)F)C1 [Example 11]	35
CNC[C@H]1CN(c2c(NC(=O)c3ccn(CC(F)F)n3)ccc(C3CCCC3)c2C(F)(F)F)CCN1C [Example 14]	150
CN1CCN(c2c(NC(=O)c3cccn(CC(F)F)c3=O)ccc(Oc3ccccc3Cl)c2C(F)(F)F)C[C@@H]1CN [Example 15]	99
CN1CCN(c2c(NC(=O)c3cccn(CC(F)F)c3=O)ccc(Oc3ccccc3F)c2C(F)(F)F)C[C@@H]1CN [Example 16]	73
CN1CCN(c2c(NC(=O)c3ccn(CC(F)F)n3)ccc(OC3CCC3)c2C(F)(F)F)C[C@@H]1CN [Example 17]	190
CN1CCN(c2c(NC(=O)c3ccn(CC(F)F)n3)ccc(Oc3ccc(F)cc3F)c2C(F)(F)F)C[C@@H]1CN [Example 18]	130
CN1CCN(c2c(NC(=O)c3ccn(CC(F)F)n3)ccc(Oc3ccccc3F)c2C(F)(F)F)C[C@H]1CN [Example 19]	960
CN1CCN(c2c(NC(=O)c3cccn(CC(F)F)c3=O)ccc(Oc3ccccc3F)c2C(F)(F)F)C[C@H]1CN [Example 21]	1100
CNC[C@H]1CN(c2c(NC(=O)c3ccn(CC(F)F)n3)ccc(Oc3ccccc3F)c2C(F)(F)F)CCN1C [Example 23]	63

Compound	IC50 [nM]
CNC[C@H]1CN(c2c(NC(=O)c3ccn(CC(F)F)n3)ccc(Oc3ccccc3Cl)c2C(F)(F)F)CCN1C [Example 24]	36
CNC[C@H]1CN(c2c(NC(=O)c3ccn(CC(F)F)n3)ccc(Oc3ccccc3F)c2F)CCN1C [Example 25]	73
CNC[C@H]1CN(c2c(NC(=O)c3ccn(CC(F)F)n3)ccc(Oc3ccccc3F)c2Cl)CCN1C [Example 27]	37
CN1CCN(c2c(NC(=O)c3ccn(CC(F)F)n3)ccc(Oc3ccc(F)cc3)c2C(F)(F)F)C[C@@H]1CN [Example 28]	240
NC[C@@H]1CCCN(c2c(NC(=O)c3ccn(-c4ccnnc4)n3)ccc(Oc3ccccc3)c2C(F)(F)F)C1 [Example 31]	23
N#Cc1ccccc1Oc1ccc(NC(=O)c2ccn(CC(F)F)n2)c(N2CCC[C@@H](CN)C2)c1C(F)(F)F [Example 32]	100
Cc1cc(C(=O)Nc2ccc(Oc3ccccc3)c(C(F)(F)F)c2N2CCC[C@@H](CN)C2)nn1-c1ccnnc1 [Example 35]	45
O=C(Nc1ccc(Oc2ccccc2F)c(C(F)(F)F)c1N1CCC[C@@H](CNC2CC2)C1)c1ccn(-c2ccnnc2)n1 [Example 36]	55
Cc1cc(C(=O)Nc2ccc(Oc3ccccc3F)c(C(F)(F)F)c2N2CCC[C@@H](CN)C2)nn1-c1ccnnc1 [Example 37]	23
Cc1cn(-c2ccnnc2)nc1C(=O)Nc1ccc(Oc2ccccc2F)c(C(F)(F)F)c1N1CCC[C@@H](CN)C1 [Example 39]	39
NC[C@@H]1CCCN(c2c(NC(=O)c3coc(-c4ccnnc4)n3)ccc(-c3ccccc3F)c2C(F)(F)F)C1 [Example 42]	150
NC[C@@H]1CCCN(c2c(NC(=O)c3ccn(-c4ccnnc4)n3)ccc(-c3ccccc3F)c2C(F)(F)F)C1 [Example 43]	30
CNC[C@H]1CN(c2c(NC(=O)c3ccn(-c4ccnnc4)n3)ccc(C3=CCOCC3)c2C(F)(F)F)CCN1C [Example 50]	55
CN1CCN(c2c(NC(=O)c3ccn(-c4ccnnc4)n3)ccc(Oc3ccc(F)cc3)c2C(F)(F)F)C[C@@H]1CN [Example 52]	46
CN1CCN(c2c(NC(=O)c3coc(-c4ccnnc4)n3)ccc(Oc3ccc(F)cc3)c2C(F)(F)F)C[C@@H]1CN [Example 53]	29
NCC1(F)CCCN(c2c(NC(=O)c3ccn(-c4ccnnc4)n3)ccc(Oc3ccccc3F)c2C(F)(F)F)C1 (stereo not drawn) [Example 58]	21

Now those with a lower IC50, led by results:

IC50 [nM]	Compound
9.3	NC[C@@H]1CCCN(c2c(NC(=O)c3ccn(CC(F)F)n3)ccc(Oc3ccccc3Cl)c2C(F)(F)F)C1 [Example 9]
18	CNC[C@H]1CN(c2c(NC(=O)c3coc(-c4ccnnc4)n3)ccc(Oc3ccccc3F)c2C(F)(F)F)CCN1C [Example 22, N-[4-(2-fluorophenoxy)-2-{(3S)-4-methyl-3-[(methylamino)methyl]piperazin-yl}-3-(trifluoromethyl)phenyl]-2-(pyridazin-4-yl)-1,3-oxazole-4-carboxamide trihydrochloride]
19	CNC[C@H]1CN(c2c(NC(=O)c3ccn(CC(F)F)n3)ccc(Oc3ccccc3Cl)c2Cl)CCN1C [Example 26]
4.8	NC[C@@H]1CCCN(c2c(NC(=O)c3ccn(-c4ccnnc4)n3)ccc(Oc3ccccc3Cl)c2C(F)(F)F)C1 [Example 33]
3.1	NC[C@@H]1CCCN(c2c(NC(=O)c3ccn(-c4ccnnc4)n3)ccc(Oc3ccccc3F)c2C(F)(F)F)C1 [Example 34]
4.1	CN1CCN(c2c(NC(=O)c3ccn(-c4ccnnc4)n3)ccc(Oc3ccccc3F)c2C(F)(F)F)C[C@@H]1CN [Example 38]
5.2	CN1CCN(c2c(NC(=O)c3ccn(-c4ccnnc4)n3)ccc(OC3CCCC3)c2C(F)(F)F)C[C@@H]1CN [Example 40]
5	CN1CCN(c2c(NC(=O)c3coc(-c4ccnnc4)n3)ccc(OC3CCCC3)c2C(F)(F)F)C[C@@H]1CN [Example 41]
8.6	CNC[C@H]1CN(c2c(NC(=O)c3ccn(-c4ccnnc4)n3)ccc(OC3CCCC3)c2C(F)(F)F)CCN1C [Example 44]
3.1	CN1CCN(c2c(NC(=O)c3ccn(-c4ccnnc4)n3)ccc(Oc3ccccc3Cl)c2C(F)(F)F)C[C@@H]1CN [Example 46]
7.8	CNC[C@H]1CN(c2c(NC(=O)c3coc(-c4ccnnc4)n3)ccc(C3CCCC3)c2C(F)(F)F)CCN1C [Example 49]
17	CN1CCN(c2c(NC(=O)c3ccn(-c4ccnnc4)n3)ccc(OC3CCC3)c2C(F)(F)F)C[C@@H]1CN [Example 51]
12	CN1CCN(c2c(NC(=O)c3ccn(-c4ccnnc4)n3)ccc(Oc3ccccc3F)c2C(F)(F)F)C[C@H]1CN [Example 54]
12	CN1CCN(c2c(NC(=O)c3coc(-c4ccnnc4)n3)ccc(Oc3ccccc3F)c2C(F)(F)F)C[C@H]1CN [Example 55]
0.89	CN1CCN(c2c(NC(=O)c3ccn(-c4ccnnc4)n3)ccc(Oc3ccccc3Cl)c2Cl)C[C@@H]1CN [Example 56]
0.42	CN1CCN(c2c(NC(=O)c3coc(-c4ccnnc4)n3)ccc(Oc3ccccc3Cl)c2Cl)C[C@@H]1CN [Example 57]
